# Measurements published in patent US7718655B2, “Trisubstituted triazine compounds, and methods for making and using the compounds, which have antitubulin activity” (New York University, priority 2001, dated 2010).
# Like-named read-outs stand apart in the source and are kept apart here.
# What was measured:
# tubulin = system: T1, tubulin; assay: In vitro microtubule disassembly assay; type: biochemical; settings: tubulin and rhodamine-tubulin, 37° C. for 20 minutes, fluorescence microscopy
# T1 construct: fused on or other part: rhodamine label on part of the tubulin (a fluorescent tracer, not a protein)
# Description: In Vitro Microtubule Disassembly Assay
# Reagent A was made by mixing 250 mg/25 mL tubulin and rhodamine-tubulin (60 mg/6 mL), purchased from Cytoskeleton, with 20 mL, 10 mM GTP at 0° C. Reagent B was made by dissolving the compounds (various concentrations, 2 mL in DMSO) in 2×assay buffer (200 mL, 80 mM K PIPES (pH 7.5), 5 mM MgCl2, 1 mM EDTA). Two mL of Reagent A and two mL of Reagent B were mixed in a […] and incubated at 37° C. for 20 minutes. Then, 100 uL of 60% glycerol was added and mixed by gently pipetting the mixture up and down three times. Two uL of the mixture was placed onto a glass slide, covered with a coverslip, and observed by fluorescence microscopy (400×magnification, rhodamine channel).
# [1] = system: Human U937 leukemia cells; assay: Growth inhibition of cancer cells (MTS); type: cell-based; settings: 490 nm, read-out: IC50 (Cancer cell growth inhibition)
# Description: Growth Inhibition of Cancer Cells
# Human U937 leukemia cells were obtained from ATCC. Cells were grown in proliferation media (RPMI-1640 plus 2.38 g/L HEPES, 4.5 g/L glucose, 1.5 g/L NaHCO3, 0.3 g/L Glutamine, 0.11 g Na Pyruvate) plus 20% fetal calf serum. Cells were kept at 37° C., 5% CO2, at a concentration of 0.2-1×10^6 cells/ml. To a 100 μl cell suspension in 96-well plate (1×10^4 cells/well), 20 μl of MTS tetrazolium reagent solution (Promega) in RPMI -1640 medium was added for 2 hours at 37° C. in a 5% CO2 atmosphere. After the incubation period, the reduced formazan product was measured at 490 nm using a plate reader.
# [2] = Homo sapiens, U-937, MTS tetrazolium reagent
IC50 (tubulin),"IC50 [1, 2]",IC50 ([1]; MTS tetrazolium reagent),Compound
< 20 µM,5 µM,–,"COc1ccc(CNc2nc(NCc3ccc(OC)cc3)nc(NC3CCCCC3)n2)cc1 [Compound S77, N-Cyclohexyl-N′,N″-bis-(4-methoxybenzyl)-[1,3,5]Triazine-2,4,6-triamine]"
< 20 µM,10 µM,–,COc1ccc(CNc2nc(NCc3ccc(OC)cc3)nc(NCC3CCCO3)n2)cc1 (stereo not drawn) [Compound S17]
< 20 µM,18 µM,–,CNc1nc(NCc2ccc(OC)cc2)nc(NCc2ccc(OC)cc2)n1 [Compound S33]
8 µM,10 µM,–,COc1ccc(CNc2nc(NCc3ccc(OC)cc3)nc(NC3CCCC3)n2)cc1 [Compound S1]
< 20 µM,12 µM,–,COc1ccc(CNc2nc(NCc3ccc(OC)cc3)nc(NC3CCC3)n2)cc1 [Compound S43]
< 20 µM,25 µM,–,COc1ccc(CNc2nc(NCc3ccc(OC)cc3)nc(NC3CC3)n2)cc1 [Compound S22]

# Second part, the molecule before the results:
Compound,IC50 (tubulin),"IC50 [1, 2]",IC50 ([1]; MTS tetrazolium reagent)
"COc1ccc(CNc2nc(NCc3ccc(OC)cc3)nc(NC(C)C)n2)cc1 [Compound S84, N-Isopropyl-N′,N″-bis-(4-methoxybenzyl)-[1,3,5]Triazine-2,4,6-triamine]",< 20 µM,9 µM,–
"COc1ccc(CNc2nc(NCc3ccc(OC)cc3)nc(N3CCOCC3)n2)cc1 [Compound S78, N′,N″-Bis-(4-methoxybenzyl)-6-morpholin-4-yl-[1,3,5]Triazine-2,4-diamine]",< 20 µM,–,12 µM
COc1ccc(CNc2nc(NCc3ccc(OC)c(OC)c3)nc(NC3CCCCC3)n2)cc1 [Compound S53],2.5 µM,1 µM,–
COc1ccc(CNc2nc(NCCO)nc(NCc3ccc(OC)cc3)n2)cc1 [Compound S34],< 20 µM,20 µM,–
CCNc1nc(NCc2ccc(OC)cc2)nc(NCc2ccc(OC)cc2)n1 [Compound S51],< 20 µM,20 µM,–
CCC(C)Nc1nc(NCc2ccc(OC)cc2)nc(NCc2ccc(OC)cc2)n1 (stereo not drawn) [Compound S25],< 20 µM,25 µM,–
